According to paper PMC10848157, “Assessing NH300094, a novel dopamine and serotonin receptor modulator with cognitive enhancement property for treating schizophrenia” (Frontiers in Pharmacology, 2024):

Assay: Spontaneous locomotor activity test in mice
Details: mouse, in vivo; single oral dose, male ICR mice; read-out: ED50, inhibition of spontaneous locomotor activity

O=C1CCc2cc(OCCCN3CCC(c4noc5cc(F)ccc45)CC3)cc3c2N1CC3 [NH300094, 8-(3-(4-(6-fluorobenzo [d]isoxazol-3-yl)piperidin-1-yl)propoxy)-1,2,5,6-tetrahydro-4H-pyrrolo [3,2,1-ij] quinolin-4-one]
ED50 at 60 min: ~0.49 mg/kg
